# Where a name gives a salt, the structure may show the parent alone.
# Columns and labels:
# [1] = tested on: male mice; assay: Hypothermia caused by reserpine; type: in vivo
# Description: It also has no influence on the hypothermia of male mice, which is caused by reserpine.
# [2] = tested on: mice; assay: Tail clamp test according to Haffner, defensive reactions to pain stimuli; type: in vivo; details: 200 mgm/kg p.o.
# [3] = tested on: Escherichia coli WP 2 (P); assay: AMES-system, test for mutagenic effects, Escherichia coli; type: cell-based
# Experimental: In order to show the whole spectrum of induced molecular DNA-damages (base substitutions, frame-shift mutations, deletions) the auxotrophic bacterial strains Salmonella typhimurium TA 98, TA 100 and Escherichia coli WP 2 (P) were used as genetic indicators.
# The test for all microorganisms were carried out in a way such that the influence of a microsomal enzyme system, together with the corresponding co-factors, could be tested with regard to the test substance, and to determine the differences in enzyme induction. The tests were performed without an activating system and in the presence of an activating system. […] From the S-9 induced fraction, 3 different concentration levels were tested.
# [4] = Evaluation of taste quality
# Description: They often have a side-taste or after-taste. Novel compounds A to F are, however, characterized by a very pure sweet taste.
# [5] = tested on: bacteria; assay: Bacteriostatic effect
# [6] = tested on: anesthetized cats; assay: Blood pressure, heart rate and respiration of anesthetized cats; type: in vivo; details: anesthetized cats, 1.0, 3.0 and 10.0 mg/kg i.v.
# Experimental: (§1) The compound C had no effect on the contractility and the frequency of the isolated, beating atrium of the rat heart. When compound C was given in doses of 1.0 and 3.0 and 10.0 mg/kg i.v. no effect on blood pressure, heart rate and respiration of anesthetized cats could be observed. At concentrations of 1×10^-4 mol/liter compound C had no effect on the ADP-induced, thrombine-induced and collagen-induced aggregation of the thrombozytes in the platelet-rich plasma of healthy test persons.
# [7] = tested on: Salmonella typhimurium TA 98, TA 100, TA 1535, TA 1537, TA 1538; assay: AMES-system, test for mutagenic effects, Salmonella typhimurium; type: cell-based
# Experimental: Compounds C and D were tested in the AMES-system [Mutation Research 31, 347-364 (1975)] with regard to their mutagenic properties. In order to show the whole spectrum of induced molecular DNA-damages (base substitutions, frame-shift mutations, deletions) the auxotrophic bacterial strains Salmonella typhimurium TA 98, TA 100 and Escherichia coli WP 2 (P) were used as genetic indicators. The strains Salmonella typhimurium TA 1535, TA 1537 and TA 1538 were additionally used in the test of compound C.
# The test for all microorganisms were carried out in a way such that the influence of a microsomal enzyme system, together with the corresponding co-factors, could be tested with regard to the test substance, and to determine the differences in enzyme induction. The tests were performed without an activating system and in the presence of an activating system. For the in vitro-activation, S-9 supernatants (fraction of the endoplasmatic reticulum) of normal, i.e. not pre-treated rats and of Aroclor 1254 (500 mg/kg) induced rats were used. From the S-9 induced fraction, 3 different concentration levels were tested.
# (§2) The substance concentrations of compound C were 0.1 and 0.5 mgm/plate and the concentrations of compound D were 5, 10, 15 and 20 mg/plate.
# [8] = tested on: intestinal tract of the rat; assay: Ulcerations in the intestinal tract; type: in vivo; details: 3 times 200 mgm/kg p.o.
# [9] = tested on: mice; assay: Hexobarbital narcosis, loss of the righting reflex; type: in vivo; details: 25 mgm/kg p.o.
# Description: Compound C has no effect on the hexobarbital narcosis in mice.
# [10] = tested on: mice; assay: Spontaneous motility in light beam cages; type: in vivo; details: same dosage (200 mgm/kg p.o.)
# [11] = Determination of the threshold concentration (taste testers, Schutz and Pilgrim method); set-up: key: mean of 5 testers; 0 = not sweet, 3 = very sweet
# Experimental: From novel compounds A, B, C, D, E and F and from known comparison compounds U, V and W aqueous solutions in concentrations of 1:12500, 1:25000, 1:50000, 1:100000 and 1:200000 were prepared and evaluated by each of 5 taste testers according to the following criteria: Very sweet (=3 points); medium sweet (=2 points), slightly sweet (=1 point) and not sweet (=0 point). The tests were carried out according to the method of H. G. Schutz and F. J. Pilgrim [Food Research 22, 206 (1957)]. The dilution with perceptible sweetness was defined as the concentration at which the average value reached the evaluation points 1.0 or higher.
# [12] = tested on: eye of the rabbit; assay: Local compatibility in the eye; type: in vivo; details: 1% solution
# [13] = tested on: water-loaded male rats; assay: Secretion of Na+, K+, Cl- and liquid in water-loaded rats; type: in vivo; details: 200 mgm/kg p.o.
# [14] = tested on: isolated, beating atrium of the rat heart; assay: Isolated, beating atrium
# Experimental: as §1
# [15] = tested on: mice; assay: Electroshock convulsion; type: in vivo; details: 200 mgm/kg p.o.
# [16] = tested on: rats; assay: Spontaneous motility in electric activity cages (Fuhrer and Feldhofer); type: in vivo
# Experimental: (§3) Also, the test of the motility of rats in electric activity cages according to Fuhrer and Feldhofer [Arzneim. Forsch. […] Moreover, no effect regarding the body temperatures of the rats at a dosage of 200 mg/kg p.o. could be observed. The measurements were made after 1, 2, 3 and 4 hours after oral administration of the substance; one control group only received the distilled water solvent.
# [17] = tested on: thrombozytes in the platelet-rich plasma of healthy test persons; assay: Thrombozyte aggregation in platelet-rich plasma; type: cell-based; details: 1×10^-4 mol/liter
# Experimental: as §1
# [18] = tested on: fungi; assay: Fungistatic effect
# [19] = tested on: rat; assay: Orienting acute toxicity, oral, rat; type: in vivo; details: 5000 mgm/kg oral, 6 animals
# Experimental: The acute toxicity was determined after oral administration to male and female mice and to male and female rats. The substances were given in an aqueous solution or as a suspension in tylose.
# [20] = tested on: mice; assay: Rotating cylinder test, muscle-relaxing and coordination inhibitory effects; type: in vivo; details: 200 mgm/kg p.o.
# [21] = tested on: microorganism growth; assay: Series dilution essay, inhibition of the microorganism growth; type: cell-based; details: highest dosages (C 0.5 mgm/plate, D 20 mg/plate)
# Experimental: as §2
# [22] = Body temperature; type: in vivo; details: rats, 200 mg/kg p.o.; 1, 2, 3 and 4 hours after administration
# Experimental: as §3
# [23] = Batzinger, On and Bueding, Science 198, 944 (1977); cited from earlier work
# [24] = Determination of the relative sweetening power in comparison to saccharose (taste testers, 3% saccharose solution); details: compared with 3% aqueous solution of saccharose
# Description: The relative sweetening power (often also defined as degree of sweetness) of sweetening agents in comparison to saccharose (cane sugar) varies with the concentrations within wide limits. Thus, in the usual concentrations (corresponding to a 2-10% solution of saccharose) the relative sweetening power of saccharin varies from 200 to 700. Therefore, for the determination of the relative sweetening power of the above-mentioned compounds a 3% aqueous solution of saccharose was always used for comparison.
# The further determination of the relative sweetening power was continued according to the methods of R. Pauli [Chemiker Zeitung 44, 744 (1920)] and T. Paul [Chemiker-Zeitung 45 38 (1921)]. Each test series was tested by 4 taste testers.
# [25] = heretofore known sweetening agents; cited from earlier work
# [26] = usual concentrations, corresponding to a 2-10% solution of saccharose; cited from earlier work
smiles,measurement,setting,value
"Cc1cc2c(s1)S(=O)(=O)NC2=O [Compound C, 5-Methyl-thieno[3,2-d]isothiazole-3-(2H)-one-1,1-dioxide sodium salt]",influence on reserpine hypothermia,[1],no influence
same,influence on the defensive reactions to pain stimuli,[2],did not show any influence
same,release of base substitutions,[3]; E. coli WP2 (P),do not release base substitutions
same,increase in the spontaneous mutation rate,"[3]; E. coli WP 2 (P), C 0.1 and 0.5 mgm/plate, D 5-20 mg/plate, with and without activating system",did not lead to an increase
same,taste quality compared with saccharose (cane sugar),[4],achieve the taste quality of saccharose
same,bacteriostatic effect,[5],neither bacteriostatically nor fungistatically effective
same,effect on blood pressure,[6],no effect
same,effect on heart rate,[6],no effect
same,effect on respiration,[6],no effect
same,release of base substitutions,"[7]; S. typhimurium TA 1535, TA 100",do not release base substitutions
same,release of frame-shift mutations,"[7]; S. typhimurium TA 1537, TA 1538, TA 98",do not release
same,increase in the spontaneous mutation rate,"[7]; Salmonella strains, C 0.1 and 0.5 mgm/plate, D 5-20 mg/plate, with and without activating system",did not lead to an increase
same,colonies counted on the substance plates,[7]; all test strains,within the spontaneous range
same,effect of the enzyme induction and of the activating fraction on the reverse mutation rate,"[7]; all tested strains, S-9 of normal and Aroclor 1254 induced rats",not detectable
same,mutagenic potential,[7]; conclusion over all tested strains,do not indicate a mutagenic potential
same,ulcerations in the intestinal tract,[8],does not cause any ulcerations
same,duration of hexobarbital narcosis (loss of the righting reflex),[9],not influenced
same,influence on spontaneous motility,[10],does not influence the spontaneous motility of mice
same,Average Value of Evaluation Points,"[11]; concentration 1:25000, sodium salt",2.0
same,Average Value of Evaluation Points,"[11]; concentration 1:50000, sodium salt",1.2
same,local anesthesia,[12],no local anesthesia
same,mydriasis,[12],no mydriasis
same,redness of the conjunctiva,[12],no redness of the conjunctiva
same,secretion of Cl^-,[13],no effect
same,secretion of K^+,[13],no effect
same,secretion of Na^+,[13],no effect
same,secretion of liquid,[13],no effect
same,effect on contractility,[14],no effect
same,effect on frequency,[14],no effect
same,influence on electroshock convulsion,[15],does not influence
same,effect on spontaneous motility,[16],did not show any effect on the spontaneous motility
same,effect on ADP-induced aggregation of thrombozytes,[17],no effect
same,effect on collagen-induced aggregation of thrombozytes,[17],no effect
same,effect on thrombine-induced aggregation of thrombozytes,[17],no effect
same,fungistatic effect,[18],neither bacteriostatically nor fungistatically effective
same,"Animals which died within the observation time, 1 day",[19],0 animals
same,"Animals which died within the observation time, 7 days",[19],0 animals
same,ability to hold themselves in rotating cylinders,[20],able to hold themselves in rotating cylinders
same,muscle-relaxing and coordination inhibitory effects,[20],no muscle-relaxing and coordination inhibitory effects
same,inhibition of the microorganism growth,[21],did not show any inhibition
same,effect on body temperature,[22],no effect
"O=C1NS(=O)(=O)c2ccccc21 [V, Saccharin, reference compound]",mutagenic effect,[23],shows a mutagenic effect
same,Relative Sweetening Power (Saccharose = 1),[24],550
same,Average Value of Evaluation Points,[11]; concentration 1:25000,2.4
same,Average Value of Evaluation Points,[11]; concentration 1:50000,1.2
same,Average Value of Evaluation Points,[11]; concentration 1:100000,0.4
same,side-taste or after-taste,[25],unpleasant after-taste
same,taste quality compared with saccharose,[25],do not have the taste quality of saccharose
same,relative sweetening power of saccharin,[26],200 to 700
